Measured values as given in PMC5752595 (Molecular cancer therapeutics, 2017).

Tests used:
Experiment in all cases: in vitro kinase assay
OSR1 = OSR1 (Homo sapiens, UniProt O95747); format: biochemical
RSK1 = RSK1 (Homo sapiens, UniProt Q15418); format: biochemical
CAMKK2 = CAMKK2 (Homo sapiens, UniProt Q96RR4); format: biochemical
FER = FER (Homo sapiens, UniProt P16591); format: biochemical
RSK2 = RSK2 (Homo sapiens, UniProt P51812); format: biochemical
AMPK = format: biochemical, Homo sapiens; settings: read-out: Ceritinib

OSR1, sequence (O95747 2-527): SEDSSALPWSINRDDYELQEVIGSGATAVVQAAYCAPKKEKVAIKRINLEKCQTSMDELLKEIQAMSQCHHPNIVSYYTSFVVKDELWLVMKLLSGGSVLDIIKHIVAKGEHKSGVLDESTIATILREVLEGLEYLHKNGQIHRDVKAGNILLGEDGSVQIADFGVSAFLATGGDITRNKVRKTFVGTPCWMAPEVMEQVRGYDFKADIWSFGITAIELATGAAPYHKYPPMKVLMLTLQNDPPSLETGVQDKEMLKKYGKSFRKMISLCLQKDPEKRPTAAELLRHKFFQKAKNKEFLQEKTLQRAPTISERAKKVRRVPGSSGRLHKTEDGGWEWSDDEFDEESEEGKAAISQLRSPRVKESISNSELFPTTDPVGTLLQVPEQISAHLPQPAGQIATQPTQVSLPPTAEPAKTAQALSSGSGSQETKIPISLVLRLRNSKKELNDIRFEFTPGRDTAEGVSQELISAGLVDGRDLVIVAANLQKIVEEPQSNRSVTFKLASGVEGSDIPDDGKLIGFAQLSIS
FER, sequence (P16591 whole entry): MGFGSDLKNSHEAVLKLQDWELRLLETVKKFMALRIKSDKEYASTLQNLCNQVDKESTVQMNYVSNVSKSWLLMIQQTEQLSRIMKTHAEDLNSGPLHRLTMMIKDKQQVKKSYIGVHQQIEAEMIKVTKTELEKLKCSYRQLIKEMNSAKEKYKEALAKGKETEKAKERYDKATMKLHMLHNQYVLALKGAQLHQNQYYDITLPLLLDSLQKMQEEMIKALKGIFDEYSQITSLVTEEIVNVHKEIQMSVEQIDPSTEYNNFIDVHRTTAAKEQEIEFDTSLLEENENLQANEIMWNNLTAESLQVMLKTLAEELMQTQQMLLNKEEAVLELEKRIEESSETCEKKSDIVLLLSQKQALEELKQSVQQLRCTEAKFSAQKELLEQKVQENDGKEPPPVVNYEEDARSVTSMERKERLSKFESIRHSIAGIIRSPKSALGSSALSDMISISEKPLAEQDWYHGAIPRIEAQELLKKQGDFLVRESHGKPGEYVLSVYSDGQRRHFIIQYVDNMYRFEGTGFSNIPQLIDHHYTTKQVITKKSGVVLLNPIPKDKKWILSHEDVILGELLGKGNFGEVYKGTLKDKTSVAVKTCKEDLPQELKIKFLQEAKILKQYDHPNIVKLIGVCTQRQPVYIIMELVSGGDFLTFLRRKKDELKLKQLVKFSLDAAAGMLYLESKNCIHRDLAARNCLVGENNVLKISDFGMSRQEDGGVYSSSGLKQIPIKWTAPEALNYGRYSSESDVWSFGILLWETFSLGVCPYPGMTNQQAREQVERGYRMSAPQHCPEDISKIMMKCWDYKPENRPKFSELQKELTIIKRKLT
RSK1, sequence (Q15418 whole entry): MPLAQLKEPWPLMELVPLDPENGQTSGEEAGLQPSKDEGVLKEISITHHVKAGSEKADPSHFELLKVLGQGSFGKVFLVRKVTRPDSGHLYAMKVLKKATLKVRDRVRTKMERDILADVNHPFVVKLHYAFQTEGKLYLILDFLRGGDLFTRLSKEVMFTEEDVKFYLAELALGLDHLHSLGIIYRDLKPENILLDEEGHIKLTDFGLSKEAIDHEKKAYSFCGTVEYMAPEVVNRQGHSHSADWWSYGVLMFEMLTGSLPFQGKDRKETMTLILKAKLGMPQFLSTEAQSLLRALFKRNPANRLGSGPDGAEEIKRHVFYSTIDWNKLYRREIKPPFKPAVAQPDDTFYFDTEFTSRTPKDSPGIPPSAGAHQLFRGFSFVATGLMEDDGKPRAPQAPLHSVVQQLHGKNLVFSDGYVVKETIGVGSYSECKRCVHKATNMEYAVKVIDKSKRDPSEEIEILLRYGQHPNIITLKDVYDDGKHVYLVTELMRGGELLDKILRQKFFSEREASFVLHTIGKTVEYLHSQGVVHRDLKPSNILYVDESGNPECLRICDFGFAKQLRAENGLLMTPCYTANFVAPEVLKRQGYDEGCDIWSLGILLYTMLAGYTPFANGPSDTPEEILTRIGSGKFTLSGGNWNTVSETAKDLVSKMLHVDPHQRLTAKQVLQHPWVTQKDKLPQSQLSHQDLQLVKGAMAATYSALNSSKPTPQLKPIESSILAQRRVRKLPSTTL
CAMKK2, sequence (Q96RR4 2-588): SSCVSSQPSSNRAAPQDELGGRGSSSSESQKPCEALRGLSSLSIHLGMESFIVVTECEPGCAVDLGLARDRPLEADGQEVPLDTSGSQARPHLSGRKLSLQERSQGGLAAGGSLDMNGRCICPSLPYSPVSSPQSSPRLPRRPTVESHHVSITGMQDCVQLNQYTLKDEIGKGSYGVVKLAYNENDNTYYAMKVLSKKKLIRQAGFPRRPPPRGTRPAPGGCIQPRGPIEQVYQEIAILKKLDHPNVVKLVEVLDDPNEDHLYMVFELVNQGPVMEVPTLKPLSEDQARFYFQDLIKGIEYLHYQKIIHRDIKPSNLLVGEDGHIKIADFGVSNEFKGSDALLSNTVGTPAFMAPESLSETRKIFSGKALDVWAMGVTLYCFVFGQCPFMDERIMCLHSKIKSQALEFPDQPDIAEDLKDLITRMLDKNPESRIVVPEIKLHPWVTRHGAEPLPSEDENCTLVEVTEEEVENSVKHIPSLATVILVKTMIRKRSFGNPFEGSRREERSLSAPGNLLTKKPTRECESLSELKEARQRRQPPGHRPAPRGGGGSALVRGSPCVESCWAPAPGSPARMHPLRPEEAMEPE
RSK2, sequence (P51812 whole entry): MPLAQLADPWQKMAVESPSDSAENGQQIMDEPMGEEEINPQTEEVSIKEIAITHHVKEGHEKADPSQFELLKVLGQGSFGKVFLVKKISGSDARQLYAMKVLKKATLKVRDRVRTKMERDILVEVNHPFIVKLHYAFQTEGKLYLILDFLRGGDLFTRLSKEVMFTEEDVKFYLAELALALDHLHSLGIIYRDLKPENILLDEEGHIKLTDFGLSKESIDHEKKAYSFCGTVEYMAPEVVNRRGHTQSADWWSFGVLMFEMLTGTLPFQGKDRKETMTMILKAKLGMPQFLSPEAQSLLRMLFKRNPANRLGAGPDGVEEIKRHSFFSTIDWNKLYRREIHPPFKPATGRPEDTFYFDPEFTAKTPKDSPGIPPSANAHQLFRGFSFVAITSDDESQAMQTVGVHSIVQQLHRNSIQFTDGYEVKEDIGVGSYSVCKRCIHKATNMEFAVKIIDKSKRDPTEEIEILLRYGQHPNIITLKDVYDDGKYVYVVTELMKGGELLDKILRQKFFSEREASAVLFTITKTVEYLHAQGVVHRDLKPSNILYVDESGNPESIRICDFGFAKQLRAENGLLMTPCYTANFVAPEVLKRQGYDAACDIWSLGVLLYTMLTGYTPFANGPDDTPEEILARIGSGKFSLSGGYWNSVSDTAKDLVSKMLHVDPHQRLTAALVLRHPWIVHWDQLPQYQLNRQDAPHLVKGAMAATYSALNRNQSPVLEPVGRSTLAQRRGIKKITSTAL

Structure (SMILES): Cc1cc(Nc2ncc(Cl)c(Nc3ccccc3S(=O)(=O)C(C)C)n2)c(OC(C)C)cc1C1CCNCC1 [ceritinib]
- IC50 (OSR1): 881 nM
- IC50 (RSK1): 966 nM
- IC50 (CAMKK2): 75.3 nM
- IC50 (FER): 11.7 nM
- IC50 (RSK2): 418 nM
- IC50 (AMPK): 2360 nM
